Measured values as given in patent publication US7265131B2, “Isoquinolinone derivatives and their use as therapeutic agents” (Exelixis, Inc., priority 2002, dated 2007).

What was measured:
LXRβ = target: T1, LXRβ (Homo sapiens, UniProt P55055); test: Scintillation proximity assay (SPA), competition with 3H-24,25-epoxycholesterol; format: binding; details: average Ki with respect to LXR β, read-out: Ki(b)
T1 construct: were made by cloning the appropriate full-length cDNAs into the pBacPakhis1 vector; poly-His (pBacPakhis1) (N); made in house; host or cells: Sf9 insect cells (baculovirus), crude lysate
T1 sequence (P19793 whole entry): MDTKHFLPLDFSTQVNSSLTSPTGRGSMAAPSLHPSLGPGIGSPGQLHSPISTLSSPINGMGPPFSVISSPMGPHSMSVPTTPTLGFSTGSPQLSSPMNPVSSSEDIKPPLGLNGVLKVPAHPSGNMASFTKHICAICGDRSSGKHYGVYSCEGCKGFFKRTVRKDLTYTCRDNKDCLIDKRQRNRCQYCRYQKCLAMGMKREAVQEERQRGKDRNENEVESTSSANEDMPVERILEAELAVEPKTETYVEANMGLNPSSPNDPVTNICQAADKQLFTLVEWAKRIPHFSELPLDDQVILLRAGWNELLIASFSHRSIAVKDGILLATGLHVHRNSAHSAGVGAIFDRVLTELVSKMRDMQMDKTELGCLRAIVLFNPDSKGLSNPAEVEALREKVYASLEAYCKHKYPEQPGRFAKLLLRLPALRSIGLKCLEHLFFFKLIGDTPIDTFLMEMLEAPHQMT
T1 sequence (P55055 whole entry): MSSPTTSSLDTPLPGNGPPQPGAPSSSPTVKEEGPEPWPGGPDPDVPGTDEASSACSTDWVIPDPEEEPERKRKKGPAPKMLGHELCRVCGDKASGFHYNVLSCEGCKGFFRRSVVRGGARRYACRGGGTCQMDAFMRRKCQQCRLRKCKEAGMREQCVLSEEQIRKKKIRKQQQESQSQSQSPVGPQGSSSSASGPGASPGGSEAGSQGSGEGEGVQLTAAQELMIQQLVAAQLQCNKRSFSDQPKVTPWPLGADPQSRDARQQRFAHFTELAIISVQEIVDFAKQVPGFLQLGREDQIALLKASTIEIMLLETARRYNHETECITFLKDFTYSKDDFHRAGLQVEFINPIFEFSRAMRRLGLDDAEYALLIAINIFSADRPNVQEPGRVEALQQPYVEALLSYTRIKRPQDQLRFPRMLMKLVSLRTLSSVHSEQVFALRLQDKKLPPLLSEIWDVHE
Method: (§1) The SPA assay measures the radioactive signal generated by the binding of ^3H-24,25-epoxycholesterol to LXRα or LXRβ. The basis of the assay is the use of SPA beads containing a scintillant, such that when binding to the receptor brings the labeled ligand into proximity with the bead, the energy from the label stimulates the scintillant to emit light. The light is measured using a standard microplate scintillation reader. The ability of a ligand to bind to a receptor can be measured by assessing the degree to which the compound can compete off a radiolabelled ligand with known affinity for the receptor.
(§2) 1. Label: ^3H-24,25-epoxy-cholesterol (Amersham)
3. LXRβ lysate: Baculovirus expressed LXRβ/RXR heterodimer with RXR having a 6-HIS tag produced as a crude lysate
(§3) 4. SPA beads: Ysi copper His-tag SPA beads (Amersham)
(§4) Baculovirus expression plasmids for human RXR α (accession No NM_002957), LXR a (accession No U22662), LXR β (accession No U07132) were made by cloning the appropriate full-length cDNAs into the pBacPakhis1 vector (Clontech, CA) following standard procedures. Insertion of the cDNAs into the pBAcPakhis1 vector polylinker created an in frame fusion to the cDNA to an N-terminal poly-His tag present in pBacPakhis1. Correct cloning was confirmed by restriction mapping, and/or sequencing.
(§5) Cell lysates were prepared by infecting healthy, Sf9 insect cells at a density of approximately 1.25×10^6/ml at 27° C., in a total volume of 500 mL per 1 L sized spinner flasks, cultured under standard conditions. To prepare LXRα lysate, insect cells were co-transfected with the LXR α expression cassette at an M.O.I of 0.5 to 0.8 and with the RXR expression cassette at a M.O.I. of approximately 1.6. To prepare LXRβ lysate, insect cells were co-transfected with the LXR β expression cassette at an M.O.I of approximately 1.6 and with the RXR expression cassette at a M.O.I. of approximately 1.6. In both cases cells were incubated for 48 hours at 27° C. with constant shaking prior to harvesting.
(§6) After incubation, cells were harvested by centrifugation and pelleted. Cell pellets were resuspended in two volumes of ice-cold freshly prepared extraction buffer (20 mM Tris pH 8.0, 10 mM Imidazole, 400 mM NaCl, containing one EDTA free protease inhibitor tablet (Roche Catalog No: 1836170) per 10 ml of extraction buffer).
(§7) Cells were homogenized slowly on ice using a Douncer to achieve 80-90% cell lysis. The homogenate was centrifuged in a pre-chilled rotor (Ti50 or Ti70, or equivalent) at 45,000 rpm for 30 minutes at 4° C. Aliquots of the supernatant were frozen on dry ice and stored frozen at −80° C. until quantification and quality control. Aliquots of the lysates were tested in the SPA assay to ensure lot to lot consistency, and via SDS-PAGE analysis after purification using Ni-NTA Resin (Qiagen) and adjusted for protein concentration and expression level prior to use in screening assays.
(§8) [^3H] 24,25 Epoxycholesterol (EC) solution: For a single 384-well plate (or 400 wells), 21 μL of [^3H] EC (specific activity 76.5 Ci/mmol, concentration 3.2 mCi/mL) was added to 4.4 mL of 2×SPA buffer to provide for a final concentration of 200 nM. For each additional 384-well plate, an additional 19.1 μL of [^3H] EC was added to 4.0 mL of additional 2×SPA buffer. The final concentration of [^3H] EC in the well was 50 nM.
LXRβ lysate (prepared as above) was diluted with protein lysate dilution buffer. 1400 μL of diluted LXRβ lysate was prepared per 384-well plate, ([…]) and 1120 μL of diluted LXRβ lysate was prepared for each additional 384-well plate.
(§9) SPA bead solution: For a 384-well plate (or 400 wells), 3.75 mL of 2×SPA buffer w/o EDTA, 2.25 mL of H2O, and 1.5 mL of Ysi His-tag SPA beads (vortex well before taking) were mixed together. For each additional 384-well plate, an additional 3.5 mL of 2×SPA buffer w/o EDTA, 2.1 mL of H2O, and 1.4 mL of Ysi His-tag SPA beads were mixed together. […]

LXRα = target: T2, LXRα (Homo sapiens, UniProt Q13133); test: as above; format: binding; details: average Ki with respect to LXR α
T2 construct: were made by cloning the appropriate full-length cDNAs into the pBacPakhis1 vector; poly-His (pBacPakhis1) (N); made in house; host or cells: Sf9 insect cells (baculovirus), crude lysate
T2 sequence (Q13133 whole entry): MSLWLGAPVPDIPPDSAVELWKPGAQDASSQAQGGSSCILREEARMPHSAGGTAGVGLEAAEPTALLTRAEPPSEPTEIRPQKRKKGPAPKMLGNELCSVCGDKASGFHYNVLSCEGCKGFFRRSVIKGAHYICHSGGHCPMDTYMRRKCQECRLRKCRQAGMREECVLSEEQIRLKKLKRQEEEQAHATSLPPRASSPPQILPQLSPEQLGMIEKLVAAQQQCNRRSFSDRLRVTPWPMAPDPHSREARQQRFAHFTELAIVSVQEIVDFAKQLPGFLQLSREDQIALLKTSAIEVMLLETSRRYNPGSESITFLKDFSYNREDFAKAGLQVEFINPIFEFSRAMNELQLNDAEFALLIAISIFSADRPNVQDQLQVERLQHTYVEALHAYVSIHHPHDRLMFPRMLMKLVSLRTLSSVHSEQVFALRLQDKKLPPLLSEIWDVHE
T2 sequence (P19793 whole entry, further chain): as the sequence (P19793 whole entry) above
Method: as §1, §2
2. LXRα lysate: Baculovirus expressed LXRα/RXR heterodimer with RXR having a 6-HIS tag produced as a crude lysate
as §3, §4, §5, §6, §7, §8
LXRα lysate (prepared as above) was diluted with protein lysate dilution buffer. 1400 μL of diluted LXRα lysate was prepared per 384-well plate, (or 200 wells) and 1120 μL of diluted LXRα lysate was prepared for each additional 384-well plate.
as §9

Structure (SMILES) | Ki (LXRβ) | Ki (LXRα)
Cc1ccc(Cn2c(C#CC(C)(C)O)cc3ccccc3c2=O)c(C)c1 [2-(2,4-dimethylbenzyl)-3-(3-hydroxy-3-methylbut-1-ynyl)-2H-isoquinolin-1-one] | > 500 nM | > 500 nM
Cc1ccc(Cn2c(-c3ccc(Oc4ccccc4)cc3)cc3ccccc3c2=O)c(C)c1 [2-(2,4-dimethylbenzyl)-3-(4-phenoxyphenyl)-2H-isoquinolin-1-one] | 10 to 150 nM | 10 to 150 nM
Cc1cccc(-c2cc3ccccc3c(=O)n2Cc2ccc(C)cc2C)c1 [2-(2,4-dimethylbenzyl)-3-m-tolyl-2H-isoquinolin-1-one] | 10 to 150 nM | 150 to 500 nM
Cc1ccc(Cn2c(-c3ccsc3)cc3ccccc3c2=O)c(C)c1 [2-(2,4-dimethylbenzyl)-3-thiophen-3-yl-2H-isoquinolin-1-one] | 150 to 500 nM | > 500 nM
Cc1cccc(-c2cc3ccccc3c(=O)n2Cc2ccccc2)c1 [2-benzyl-3-m-tolyl-2H-isoquinolin-1-one] | > 500 nM | > 500 nM
O=c1c2c(Cl)cccc2cc(-c2cc(-c3cc(C(F)(F)F)cc(C(F)(F)F)c3)co2)n1Cc1ccc(F)cc1F [3-[4-(3,5-bis-trifluoromethylphenyl)furan-2-yl]-8-chloro-2-(2,4-difluorobenzyl)-2H-isoquinolin-1-one] | 10 to 150 nM | 150 to 500 nM
Nc1ccc(-c2coc(-c3cc4cccc(Cl)c4c(=O)n3Cc3ccc(F)cc3F)c2)cc1C(F)(F)F [3-[4-(4-amino-3-trifluoromethylphenyl)furan-2-yl]-8-chloro-2-(2,4-difluorobenzyl)-2H-isoquinolin-1-one] | 10 to 150 nM | 10 to 150 nM
O=c1c2c(Cl)cccc2cc(-c2ccc(Oc3ccccc3)cc2)n1Cc1ccc(F)cc1F [8-chloro-2-(2,4-difluorobenzyl)-3-(4-phenoxyphenyl)-2H-isoquinolin-1-one] | 10 to 150 nM | 10 to 150 nM
O=c1c2c(Cl)cccc2cc(-c2ccc(Oc3cnccn3)cc2)n1Cc1ccc(F)cc1F [8-chloro-2-(2,4-difluorobenzyl)-3-[4-(pyrazin-2-yloxy)phenyl]-2H-isoquinolin-1-one] | 10 to 150 nM | 10 to 150 nM
CS(=O)(=O)c1ccc(-c2ccc(-c3cc4cccc(Cl)c4c(=O)n3Cc3ccc(F)cc3F)s2)cc1 [8-chloro-2-(2,4-difluorobenzyl)-3-[5-(4-methanesulfonylphenyl)thiophen-2-yl]-2H-isoquinolin-1-one] | 10 to 150 nM | 10 to 150 nM
O=c1c2c(Cl)cccc2cc(-c2ccc(Oc3ccccc3)cc2)n1CC1CCCCC1 [8-chloro-2-cyclohexylmethyl-3-(4-phenoxyphenyl)-2H-isoquinolin-1-one] | 10 to 150 nM | 10 to 150 nM
O=c1c2c(Cl)cccc2cc(-c2ccc(Oc3ccccc3)cc2)n1Cc1cccs1 [8-chloro-3-(4-phenoxyphenyl)-2-thiophen-2-ylmethyl-2H-isoquinolin-1-one] | 10 to 150 nM | 10 to 150 nM
CCOc1ccc(-c2csc(-c3cc4cccc(Cl)c4c(=O)n3Cc3ccc(F)cc3F)c2)cc1Cl [8-chloro-3-[4-(3-chloro-4-ethoxyphenyl)thiophen-2-yl]-2-(2,4-difluorobenzyl)-2H-isoquinolin-1-one] | 150 to 500 nM | > 500 nM
Cc1ccc(Cn2c(-c3ccc(Oc4ccccc4)cc3)cc3cccc(C)c3c2=O)cc1 [8-methyl-2-(4-methylbenzyl)-3-(4-phenoxyphenyl)-2H-isoquinolin-1-one] | 10 to 150 nM | 10 to 150 nM
